ChEMBL document CHEMBL5150005, “Discovery of 5-{4-[(7-Ethyl-6-oxo-5,6-dihydro-1,5-naphthyridin-3-yl)methyl]piperazin-1-yl}-N-methylpyridine-2-carboxamide (AZD5305): A PARP1-DNA Trapper with High Selectivity for PARP1 over PARP2 and Other PARPs” (J Med Chem, 2021)
Converted amounts (≈) assume the structure as drawn. The source made the active and inactive calls. The rule behind the calls is not given here.

Columns and labels:
[1] = Hematotoxicity in CD34+ hematopoietic stem/progenitor cells (unknown origin) assessed as reduction of cell viability treated for 5 days by cell-tire-Glo-2.0 luminescence based assay; assay type: toxicity, CD34-positive hematopoietic stem/progenitor cell; conditions: cd34-positive hematopoietic stem/progenitor cell, 120 h; DDE = dose-dependent effect; dose lower 1e-05 µM, dose upper 100 µM, time 5 day
[2] = Unbound clearance in dog; assay type: ADME, Canis lupus familiaris; conditions: in vivo
[3] = Plasma clearance in rat; assay type: ADME
in vitro [4] = conditions: dog, plasma
physchem = conditions: buffer, pH 7.4
[5] = target: Protein mono-ADP-ribosyltransferase PARP3 (Homo sapiens) (UniProt Q9Y6F1); experiment: Binding affinity to PARP3 (unknown origin) assessed as apparent dissociation constant
Sequence of Protein mono-ADP-ribosyltransferase PARP3 (Homo sapiens) (Q9Y6F1 whole entry): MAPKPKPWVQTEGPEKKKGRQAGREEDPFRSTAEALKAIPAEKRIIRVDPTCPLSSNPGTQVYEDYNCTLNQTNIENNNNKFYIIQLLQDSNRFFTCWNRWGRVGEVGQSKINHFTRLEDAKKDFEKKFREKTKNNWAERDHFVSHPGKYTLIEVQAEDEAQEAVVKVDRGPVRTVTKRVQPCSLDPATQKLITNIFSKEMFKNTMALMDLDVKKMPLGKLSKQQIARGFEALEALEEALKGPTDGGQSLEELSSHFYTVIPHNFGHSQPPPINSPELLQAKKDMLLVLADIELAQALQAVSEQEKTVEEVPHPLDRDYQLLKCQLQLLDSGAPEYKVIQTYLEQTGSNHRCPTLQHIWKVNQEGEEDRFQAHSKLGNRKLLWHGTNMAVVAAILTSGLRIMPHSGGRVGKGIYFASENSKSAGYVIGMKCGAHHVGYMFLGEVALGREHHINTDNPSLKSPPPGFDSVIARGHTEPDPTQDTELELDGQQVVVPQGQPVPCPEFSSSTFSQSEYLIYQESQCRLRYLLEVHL

[6] = Hematotoxicity in CD34+ hematopoietic stem/progenitor cells (unknown origin) assessed as reduction of cell viability treated at 3 nM for 5 days by cell-tire-Glo-2.0 luminescence based assay; assay type: toxicity; conditions: cd34-positive hematopoietic stem/progenitor cell, 120 h, 0.003 µM, time 5 day
[7] = target: Protein mono-ADP-ribosyltransferase PARP16 (Homo sapiens) (UniProt Q8N5Y8); experiment: Binding affinity to PARP16 (unknown origin) assessed as apparent dissociation constant
Sequence of Protein mono-ADP-ribosyltransferase PARP16 (Homo sapiens) (Q8N5Y8 whole entry): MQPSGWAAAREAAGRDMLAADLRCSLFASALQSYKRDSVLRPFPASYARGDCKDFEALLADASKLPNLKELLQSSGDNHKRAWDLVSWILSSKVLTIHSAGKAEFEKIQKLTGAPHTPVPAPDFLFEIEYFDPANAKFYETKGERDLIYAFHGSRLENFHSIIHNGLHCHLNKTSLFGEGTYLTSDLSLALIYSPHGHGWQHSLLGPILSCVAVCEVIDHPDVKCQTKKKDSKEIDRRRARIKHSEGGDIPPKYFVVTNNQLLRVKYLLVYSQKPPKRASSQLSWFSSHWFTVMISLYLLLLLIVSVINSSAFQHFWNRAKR

[8] = target: Protein mono-ADP-ribosyltransferase PARP12 (Homo sapiens) (UniProt Q9H0J9)
Sequence of Protein mono-ADP-ribosyltransferase PARP12 (Homo sapiens) (Q9H0J9 whole entry): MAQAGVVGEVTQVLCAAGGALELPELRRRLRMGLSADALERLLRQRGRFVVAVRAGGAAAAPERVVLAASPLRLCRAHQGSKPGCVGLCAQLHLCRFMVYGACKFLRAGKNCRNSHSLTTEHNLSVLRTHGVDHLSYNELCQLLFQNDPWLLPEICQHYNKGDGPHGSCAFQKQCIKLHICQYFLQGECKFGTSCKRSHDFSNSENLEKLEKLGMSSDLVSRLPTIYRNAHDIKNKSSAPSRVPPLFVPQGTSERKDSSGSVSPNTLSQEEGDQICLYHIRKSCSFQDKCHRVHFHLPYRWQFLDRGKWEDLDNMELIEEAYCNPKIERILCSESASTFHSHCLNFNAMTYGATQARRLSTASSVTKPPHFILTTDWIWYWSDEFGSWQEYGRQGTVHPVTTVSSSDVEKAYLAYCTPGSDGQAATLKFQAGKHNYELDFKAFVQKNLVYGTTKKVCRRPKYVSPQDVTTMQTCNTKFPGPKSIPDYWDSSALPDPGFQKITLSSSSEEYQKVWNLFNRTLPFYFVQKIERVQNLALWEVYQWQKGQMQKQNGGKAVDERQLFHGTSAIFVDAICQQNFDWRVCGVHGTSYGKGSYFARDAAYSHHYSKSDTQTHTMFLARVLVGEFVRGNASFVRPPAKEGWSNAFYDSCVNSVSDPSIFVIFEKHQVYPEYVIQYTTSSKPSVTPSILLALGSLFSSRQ

[9] = Hematotoxicity in CD34+ hematopoietic stem/progenitor cells (unknown origin) assessed as remaining viable cells treated at 100 nM for 5 days by cell-tire-Glo-2.0 luminescence based assay relative to control; assay type: toxicity, CD34-positive hematopoietic stem/progenitor cell; conditions: time 5 day, read-out: Activity
[10] = Intrinsic clearance in human hepatocytes measured per million of cells; assay type: ADME, cell-based, Hepatocyte; conditions: read-out: CLH
[11] = Oral bioavailability in monkey; assay type: ADME, organism-based, Macaca mulatta; conditions: rhesus monkey, in vivo
[12] = Oral bioavailability in dog; assay type: ADME, organism-based, Canis lupus familiaris; conditions: in vivo
[13] = Half life in monkey; assay type: ADME, Macaca mulatta; conditions: rhesus monkey, in vivo
[14] = Plasma clearance in monkey; assay type: ADME, Macaca mulatta; conditions: rhesus monkey
[15] = Aqueous solubility of the compound at pH 7.4; assay type: physicochemical; conditions: buffer
[16] = target: T1, Protein mono-ADP-ribosyltransferase PARP8 (Homo sapiens) (UniProt Q8N3A8)
T1 sequence (whole entry): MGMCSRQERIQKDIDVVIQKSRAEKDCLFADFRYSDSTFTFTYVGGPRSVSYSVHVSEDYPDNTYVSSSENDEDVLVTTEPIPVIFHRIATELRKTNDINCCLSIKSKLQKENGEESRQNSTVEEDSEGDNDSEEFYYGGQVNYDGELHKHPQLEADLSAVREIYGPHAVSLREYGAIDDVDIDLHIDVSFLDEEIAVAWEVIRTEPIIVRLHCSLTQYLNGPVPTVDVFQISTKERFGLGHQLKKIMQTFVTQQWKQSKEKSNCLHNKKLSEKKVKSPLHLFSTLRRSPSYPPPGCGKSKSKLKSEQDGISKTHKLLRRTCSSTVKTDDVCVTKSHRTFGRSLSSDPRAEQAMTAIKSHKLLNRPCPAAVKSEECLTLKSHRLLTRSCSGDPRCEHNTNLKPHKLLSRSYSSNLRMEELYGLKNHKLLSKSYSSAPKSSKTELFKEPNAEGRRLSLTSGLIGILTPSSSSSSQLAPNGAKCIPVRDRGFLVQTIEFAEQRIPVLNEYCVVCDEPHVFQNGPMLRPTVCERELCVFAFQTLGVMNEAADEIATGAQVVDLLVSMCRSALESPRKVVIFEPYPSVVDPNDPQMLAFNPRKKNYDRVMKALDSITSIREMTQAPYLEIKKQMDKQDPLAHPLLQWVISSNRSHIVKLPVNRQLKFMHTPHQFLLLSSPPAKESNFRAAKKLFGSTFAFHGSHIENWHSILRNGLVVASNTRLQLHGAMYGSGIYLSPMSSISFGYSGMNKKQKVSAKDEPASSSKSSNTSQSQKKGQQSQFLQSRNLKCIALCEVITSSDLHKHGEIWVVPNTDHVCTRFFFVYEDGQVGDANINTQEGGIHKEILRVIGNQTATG

[17] = Antitumor activity against patient derived explant HBCx-17 cells xenografted in mouse assessed as tumor regression administered daily at 1 mg/kg, po for 25 days relative to control; assay type: functional, Homo sapiens; conditions: time 25 day
in vitro [18] = conditions: rat, plasma
[19] = Plasma clearance in mouse; assay type: ADME, organism-based
[20] = Unbound clearance in mouse; assay type: ADME, organism-based; conditions: in vivo
[21] = target: Poly [ADP-ribose] polymerase tankyrase-1 (Homo sapiens) (UniProt O95271); experiment: Binding affinity to PARP5a (unknown origin) assessed as apparent dissociation constant
[22] = Antitumor activity against patient derived explant HBCx-17 cells xenografted in mouse assessed as tumor regression administered daily at 0.03 mg/kg, po for 25 days relative to control; assay type: functional, Homo sapiens; conditions: time 25 day
DLD-1 = experiment: Antiproliferative activity against human DLD-1 deficient in BRCA-2 cells measured after 7 days; assay type: functional, cell-based; conditions: Homo sapiens, DLD-1, 168 h
[23] = Volume of distribution at steady state in rat; assay type: ADME; conditions: in vivo, read-out: Vdss
[24] = Half life in rat; assay type: ADME; conditions: in vivo
[25] = target: Protein mono-ADP-ribosyltransferase PARP10 (Homo sapiens, UniProt Q53GL7); experiment: Binding affinity to PARP10 (unknown origin) assessed as apparent dissociation constant; conditions: read-out: Kd(app)
Sequence of Protein mono-ADP-ribosyltransferase PARP10 (Q53GL7 whole entry): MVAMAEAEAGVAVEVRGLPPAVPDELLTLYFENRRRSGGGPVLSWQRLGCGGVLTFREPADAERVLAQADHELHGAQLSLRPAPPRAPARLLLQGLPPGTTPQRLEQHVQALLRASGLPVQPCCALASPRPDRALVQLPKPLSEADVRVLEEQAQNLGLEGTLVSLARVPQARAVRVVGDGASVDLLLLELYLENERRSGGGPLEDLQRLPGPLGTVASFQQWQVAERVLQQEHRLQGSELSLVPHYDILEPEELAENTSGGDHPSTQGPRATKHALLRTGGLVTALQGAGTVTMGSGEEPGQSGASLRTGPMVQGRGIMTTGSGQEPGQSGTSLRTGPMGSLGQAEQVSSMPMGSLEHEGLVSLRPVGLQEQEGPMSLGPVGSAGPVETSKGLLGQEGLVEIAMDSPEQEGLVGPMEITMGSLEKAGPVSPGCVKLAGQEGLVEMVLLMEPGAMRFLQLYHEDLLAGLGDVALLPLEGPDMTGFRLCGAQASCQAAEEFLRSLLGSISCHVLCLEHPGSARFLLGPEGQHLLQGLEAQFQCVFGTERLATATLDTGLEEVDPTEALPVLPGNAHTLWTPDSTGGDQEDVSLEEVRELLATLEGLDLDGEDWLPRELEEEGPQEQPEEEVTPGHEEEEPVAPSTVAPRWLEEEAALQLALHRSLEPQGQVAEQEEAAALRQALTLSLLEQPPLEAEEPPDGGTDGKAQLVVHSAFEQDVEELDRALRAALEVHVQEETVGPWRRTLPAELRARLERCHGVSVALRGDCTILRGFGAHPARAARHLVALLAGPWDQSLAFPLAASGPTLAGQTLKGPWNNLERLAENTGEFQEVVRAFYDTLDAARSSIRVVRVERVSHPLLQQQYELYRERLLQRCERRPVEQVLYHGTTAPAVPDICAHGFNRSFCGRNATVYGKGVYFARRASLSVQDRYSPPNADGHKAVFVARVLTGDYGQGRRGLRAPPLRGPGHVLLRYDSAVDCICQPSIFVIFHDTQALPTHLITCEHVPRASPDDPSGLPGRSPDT

[26] = Antitumor activity against patient derived explant HBCx-17 cells xenografted in mouse assessed as tumor regression administered daily at 10 mg/kg, po for 25 days relative to control; assay type: functional, Homo sapiens; conditions: time 25 day
[27] = Volume of distribution at steady state in mouse; assay type: ADME, organism-based; conditions: in vivo, read-out: Vdss
[28] = Oral bioavailability in rat; assay type: ADME, organism-based; conditions: in vivo
[29] = target: Protein mono-ADP-ribosyltransferase PARP14 (Homo sapiens) (UniProt Q460N5)
Sequence of Protein mono-ADP-ribosyltransferase PARP14 (Homo sapiens) (Q460N5 whole entry): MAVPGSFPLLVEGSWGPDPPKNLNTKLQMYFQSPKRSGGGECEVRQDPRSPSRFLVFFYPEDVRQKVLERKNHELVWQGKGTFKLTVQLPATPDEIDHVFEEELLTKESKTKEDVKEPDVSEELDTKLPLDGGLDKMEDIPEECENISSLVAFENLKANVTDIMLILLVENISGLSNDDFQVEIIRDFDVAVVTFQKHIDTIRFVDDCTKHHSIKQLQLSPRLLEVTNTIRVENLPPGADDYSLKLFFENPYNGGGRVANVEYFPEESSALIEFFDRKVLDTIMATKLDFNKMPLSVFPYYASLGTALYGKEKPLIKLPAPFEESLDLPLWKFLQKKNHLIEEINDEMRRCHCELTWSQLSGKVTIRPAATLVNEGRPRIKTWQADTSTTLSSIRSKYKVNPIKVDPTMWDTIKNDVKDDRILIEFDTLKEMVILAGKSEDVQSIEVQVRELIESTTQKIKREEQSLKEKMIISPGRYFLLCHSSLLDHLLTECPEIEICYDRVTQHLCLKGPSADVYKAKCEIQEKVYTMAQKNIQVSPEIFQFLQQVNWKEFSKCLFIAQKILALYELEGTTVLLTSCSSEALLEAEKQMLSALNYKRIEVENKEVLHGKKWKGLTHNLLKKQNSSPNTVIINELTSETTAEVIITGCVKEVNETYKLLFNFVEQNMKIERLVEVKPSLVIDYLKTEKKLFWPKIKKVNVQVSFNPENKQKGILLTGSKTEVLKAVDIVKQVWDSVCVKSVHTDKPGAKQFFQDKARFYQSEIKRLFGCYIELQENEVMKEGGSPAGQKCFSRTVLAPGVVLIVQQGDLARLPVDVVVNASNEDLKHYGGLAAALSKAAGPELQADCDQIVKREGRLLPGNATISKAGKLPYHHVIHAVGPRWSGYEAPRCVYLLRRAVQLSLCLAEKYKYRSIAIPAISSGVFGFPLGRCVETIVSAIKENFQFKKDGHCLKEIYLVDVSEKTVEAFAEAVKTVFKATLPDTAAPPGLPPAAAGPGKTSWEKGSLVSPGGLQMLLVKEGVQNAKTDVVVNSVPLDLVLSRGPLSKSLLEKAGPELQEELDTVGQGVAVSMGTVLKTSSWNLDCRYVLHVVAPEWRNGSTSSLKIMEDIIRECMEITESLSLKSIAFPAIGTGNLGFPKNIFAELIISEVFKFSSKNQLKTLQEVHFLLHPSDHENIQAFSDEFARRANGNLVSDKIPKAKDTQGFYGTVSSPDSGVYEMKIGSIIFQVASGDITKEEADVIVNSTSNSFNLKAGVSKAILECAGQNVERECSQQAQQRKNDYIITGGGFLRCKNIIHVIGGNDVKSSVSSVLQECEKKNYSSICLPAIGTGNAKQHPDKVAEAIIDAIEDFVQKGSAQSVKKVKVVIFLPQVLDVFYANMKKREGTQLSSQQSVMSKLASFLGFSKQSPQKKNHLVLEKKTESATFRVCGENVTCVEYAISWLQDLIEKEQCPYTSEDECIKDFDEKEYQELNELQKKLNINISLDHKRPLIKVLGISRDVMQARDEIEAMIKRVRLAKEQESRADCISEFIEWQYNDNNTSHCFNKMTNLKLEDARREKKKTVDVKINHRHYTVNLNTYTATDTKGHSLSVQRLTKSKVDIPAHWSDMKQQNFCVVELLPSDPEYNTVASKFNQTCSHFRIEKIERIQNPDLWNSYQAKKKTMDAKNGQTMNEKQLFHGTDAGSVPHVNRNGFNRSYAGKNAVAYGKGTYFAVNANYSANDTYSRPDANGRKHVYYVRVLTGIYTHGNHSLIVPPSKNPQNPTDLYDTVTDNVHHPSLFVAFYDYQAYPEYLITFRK

[30] = Volume of distribution at steady state in monkey; assay type: ADME, Macaca mulatta; conditions: rhesus monkey, in vivo; read-out: Vdss
[31] = Oral bioavailability in mouse; assay type: ADME, organism-based; conditions: in vivo
[32] = Antitumor activity against patient derived explant HBCx-17 cells xenografted in mouse assessed as tumor regression administered daily at 0.1 mg/kg, po for 25 days relative to control; assay type: functional, Homo sapiens; conditions: time 25 day
[33] = Half life in dog; assay type: ADME, Canis lupus familiaris; conditions: in vivo
in vitro [34] = conditions: human, liver microsomes
[35] = Plasma clearance in dog; assay type: ADME, Canis lupus familiaris
in vitro [36] = conditions: rhesus monkey, plasma
[37] = Unbound clearance in monkey; assay type: ADME, Macaca mulatta; conditions: rhesus monkey, in vivo
[38] = Volume of distribution at steady state in dog; assay type: ADME, Canis lupus familiaris; conditions: in vivo, read-out: Vdss
[39] = target: Protein mono-ADP-ribosyltransferase PARP9 (Homo sapiens, UniProt Q8IXQ6)
[40] = Unbound clearance in rat; assay type: ADME; conditions: in vivo
[41] = target: Protein mono-ADP-ribosyltransferase PARP4 (Homo sapiens) (UniProt Q9UKK3); experiment: Binding affinity to PARP4 (unknown origin) assessed as apparent dissociation constant
[42] = Half life in mouse; assay type: ADME, organism-based; conditions: in vivo

## CCc1cc2ncc(CN3CCN(c4ccc(C(=O)NC)nc4)CC3)cc2[nH]c1=O [SARUPARIB]
[1]
  Activity: Dde
[2]
  CL free: 2.1 mL/min/kg
[3]
  clearance: 1.1 mL/min/kg
In vitro [4]
  fraction unbound: 0.17
physchem
  logD: 1.9
[5]
  Kd(app): Active
[6]
  Activity: Toxic
[7]
  Kd(app): Active
[8]
  Kd(app): Active
[9]
  viability at 120 h, 0.1 µM: 46%
[10]
  hepatocyte CLint: < 1 µL/min/1e6 cells
[11]
  bioavailability: 122%
[12]
  bioavailability: 73%
[13]
  half-life: 7.1 h
[14]
  clearance: 0.84 mL/min/kg
[15]
  solubility: 50 µM (≈ 20.3 µg/mL)
[16]
  Kd(app): Active
[17]
  Activity: 86%
In vitro [18]
  fraction unbound: 0.032
[19]
  clearance: 0.23 mL/min/kg
[20]
  CL free: 3.2 mL/min/kg
[21]
  Kd(app): Active
[22]
  Activity: 23%
DLD-1
  IC50: 2 nM
[23]
  Vd: 0.38 L/kg
[24]
  half-life: 4.6 h
[25]
  Kd: > 10000 nM
[26]
  Activity: 84%
[27]
  Vd: 0.17 L/kg
[28]
  bioavailability: 132%
[29]
  Kd(app): Active
[30]
  Vd: 0.38 L/kg
[31]
  bioavailability: 77%
[32]
  Activity: 73%
[33]
  half-life: 10 h
In vitro [34]
  microsomal CLint: < 3 µL/min/mg
[35]
  clearance: 0.35 mL/min/kg
In vitro [36]
  fraction unbound: 0.043
[37]
  CL free: 20 mL/min/kg
[38]
  Vd: 0.3 L/kg
[39]
  Kd(app): Active
[40]
  CL free: 34 mL/min/kg
[41]
  Kd(app): Active
[42]
  half-life: 8 h
